This note sets out measurements from PubChem BioAssay AID1996.

Values after ≈ are worked out from the molar mass of the structure shown. Where only a bound is given, the exact number is not on record here.

For this data set the following is noted: buffer; pH 7.4; 200.0 µM.
As to `Cc1onc(-c2c(Cl)cccc2Cl)c1C(=O)N=S(C)(=O)c1ccccc1` (configuration not stated), the kinetic solubility (in general, solubility judged after dilution from a stock solution rather than from solid) turned out to be 1.8 µg/mL (≈ 4.4 µM). With `O=C(Nc1ccccc1)C1C2CCCCC21` (configuration not stated) the figure was 1.9 µg/mL (≈ 8.83 µM); with `COc1ccc(CSC2=NCCN2)cc1Br`, 30.9 µg/mL (≈ 103 µM); with `Cn1c(SCc2ccccc2)nc2c1c(=O)[nH]c(=O)n2C`, 7 µg/mL (≈ 23.2 µM).

`CCN(C(=O)COC(=O)CCc1ccccc1)c1ccccc1`: the solubility (kinetic) was found to be 44.3 µg/mL (≈ 142 µM). The value for `Cc1cc(C(=O)OCC(=O)N(C)c2ccccc2)c(C)o1` was over 43.1 µg/mL; that for `COc1ccccc1-n1cc(-c2ccc(C)cc2)[nH]c1=S` was 1 µg/mL (≈ 3.37 µM). The value for `COc1ccc(C(=O)Nc2ccccc2C(=O)N2CCOCC2)cc1OC` was 46.7 µg/mL (≈ 126 µM). Consider `O=C1CC(C(=O)N2CCCc3ccccc32)CN1c1ccc(Cl)cc1` (configuration not stated), for which the kinetic solubility amounted to 46.2 µg/mL (≈ 130 µM). With `COc1ccc(CCNC(=O)c2cc(C)oc2C)cc1OC`, the solubility (kinetic) was 42 µg/mL (≈ 138 µM).

In turn, `COc1ccc(NC(=O)CN(C)C(=O)Cc2ccsc2)cc1` came in with a kinetic solubility of 42 µg/mL (≈ 132 µM). Consider `CCC(=O)Nc1cc(C(=O)O)ccc1Sc1ccc(C)cc1`, for which the kinetic solubility was determined as 38.8 µg/mL (≈ 123 µM). With `O=C(CNS(=O)(=O)c1ccccc1)NCC(=O)N1CCCCC1` the figure was over 50.9 µg/mL; with `COc1ccc2oc(C(=O)Nc3ccccn3)c(C)c2c1`, 22 µg/mL (≈ 77.9 µM). The value for `NC(N)=S` was over 11.4 µg/mL; that for `C/C(O)=C(\C#N)P(=O)(c1ccccc1)c1ccccc1` was over 42.5 µg/mL. With `O=C(COc1cccnc1[N+](=O)[O-])N1CCC(Cc2ccccc2)CC1` the figure was 51.9 µg/mL (≈ 146 µM); with `C#CC1CCCCC1NC(=O)Nc1cnccc1C(F)(F)F` (configuration not stated), 43.2 µg/mL (≈ 139 µM). For the molecule `CC(=O)c1sc(-c2ccc(F)cc2F)nc1C`, the solubility (kinetic) came to 0.8 µg/mL (≈ 3.16 µM). The value for `O=C(O)CNC(=S)N(Cc1ccccc1F)C1CCCCC1` was over 48.7 µg/mL; that for `COC(=O)C1CN(C(=O)c2ccc(OC(F)F)cc2)c2ccccc2O1` (configuration not stated) was 43.1 µg/mL (≈ 119 µM). The value for `O=C(Nc1nc2c(s1)CN(Cc1ccccc1)CC2)C1CCC1` was 40 µg/mL (≈ 122 µM). Molecule `COC(=O)c1cnc(Nc2cccc(C(F)(F)F)c2)c([N+](=O)[O-])c1` returned a solubility (kinetic) of under 0.2 µg/mL. In turn, `CC(=O)Nc1ccc(OCCC[n+]2ccccc2)cc1.[Cl-]` showed a kinetic solubility of over 46 µg/mL. The value for `Cc1ccc(NS(=O)(=O)c2ccc(F)cc2)nc1` was 34.4 µg/mL (≈ 129 µM); that for `COc1ccc(NC(=S)N2CCc3ccccc32)cc1OC` was over 47.2 µg/mL.

On to `CCN1C(C(=O)Nc2cc(C)on2)=C(O)c2ccccc2S1(=O)=O`, for which the solubility (kinetic) is over 52.4 µg/mL. The value for `O=C(COC(=O)c1ccccc1Br)NC(=O)NCc1ccccc1` was 5.1 µg/mL (≈ 13 µM); that for `CN(C)C(=O)O/N=C(\N)COc1ccc(C(C)(C)C)cc1` was 36 µg/mL (≈ 123 µM); that for `CCOC(=O)c1csc(NC(=O)CCSc2ccccc2)n1` was 1.1 µg/mL (≈ 3.27 µM). Molecule `CN1C(=O)N(C)C(c2cccc([N+](=O)[O-])c2)C2=C1CCCC2=O` (configuration not stated) showed a kinetic solubility of over 47.3 µg/mL. With `CC(C)c1ccccc1OCC(=O)N1CCCCCCC1` the figure was 18.8 µg/mL (≈ 65 µM). The value for `O=C(Nc1cccc2cccnc12)c1ccccc1Cl` was 0.3 µg/mL (≈ 1.06 µM); that for `O=C(COC(=O)c1ccc2c(c1)OCCO2)NCCc1ccccc1` was 11.7 µg/mL (≈ 34.3 µM); that for `CC(NCc1ccccc1Cl)C(=O)Nc1ccc(C#N)cc1` (configuration not stated) was 44.5 µg/mL (≈ 142 µM). With `Cc1cccc(C(=O)OCC(=O)NCCN2C(=O)CSC2=O)c1[N+](=O)[O-]` the figure was over 57.2 µg/mL; with `O=C(Nc1cc(Cl)ccc1O)c1cc(-c2ccco2)on1`, 1.4 µg/mL (≈ 4.59 µM); with `Cc1cccc(C)c1N1C(=O)CC(N2CCSCC2)C1=O` (configuration not stated), over 45.7 µg/mL. The molecule `CCOc1ccc(C(=O)O/N=C(\N)c2ccccn2)cc1` yielded a kinetic solubility of 5.2 µg/mL (≈ 18.2 µM). The value for `COc1cc(C(C)=O)ccc1OCC(=O)N1CCc2ccccc2C1` was 43.9 µg/mL (≈ 129 µM); that for `O=S(=O)(Nc1ccon1)c1ccc(Br)cc1` was 32.2 µg/mL (≈ 106 µM).

`Oc1ccccc1-c1nc2ccccc2nc1-c1ccccc1`: the kinetic solubility turned out to be 25.1 µg/mL (≈ 84.1 µM).
